*1 amine or outer side, *2 acyl side, *3 side chain or, on linkers, in order; H or OH if unused. Where a SMILES comes first, the peptide text is derived from it. Bridges are numbered along the chain shown (N, C = ends). [ ]: non-standard residue; d: D form. The star is where a group is joined. hPhe(3,5-F2-4-CF3) = N[C@@H](CCc1cc(F)c(C(F)(F)F)c(F)c1)C(=O)O; NPrPhe(4-CF3) = CCCN[C@@H](Cc1ccc(C(F)(F)F)cc1)C(=O)O; NMeGly(cPent) = CN[C@H](C(=O)O)C1CCCC1; X7 = C[C@@](N[*:1])(C(=O)[*:2])C1CC1; αMeCha = C[C@](N)(CC1CCCCC1)C(=O)O; X3 = CCC[C@](C)(N[*:1])C(=O)[*:2]; αMeI = CC[C@H](C)[C@](C)(N)C(=O)O; αMeF = C[C@](N)(Cc1ccccc1)C(=O)O; NMeD = CN[C@@H](CC(=O)O)C(=O)O; NMeL = CN[C@@H](CC(C)C)C(=O)O; αMeL = CC(C)C[C@](C)(N)C(=O)O; αMeV = CC(C)[C@](C)(N)C(=O)O; αMeS = C[C@](N)(CO)C(=O)O; Sar = CNCC(=O)O; tBu = CC(C)(C)*; Allyl = C=CC*
Tests used:
[1] = target: HRAS wild-type protein (Homo sapiens, UniProt P01112); experiment: Binding to HRAS by surface plasmon resonance (SPR), KD and KD ratio to KRAS; details: ratio of the KD value with respect to HRAS wild-type protein to the KD value with respect to KRAS
Sequence of HRAS wild-type protein (P01112 whole entry): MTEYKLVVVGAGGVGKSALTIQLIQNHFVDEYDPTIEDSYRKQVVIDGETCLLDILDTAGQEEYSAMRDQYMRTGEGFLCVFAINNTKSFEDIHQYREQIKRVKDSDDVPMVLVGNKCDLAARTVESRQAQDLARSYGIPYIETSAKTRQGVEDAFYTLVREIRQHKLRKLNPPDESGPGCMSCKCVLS
Summary of the method: (§1)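 GDP-bound biotin-Avi RAS captured at ~100–300 RU, 30°C, pH 7.4 HBS containing 10 µM GDP, 10 mM MgCl2, 1 mM DTT, 0.01% Tween 20 and 4% DMSO. KD by 1:1 fitting.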

[2] = target: GDP-bound NRAS wild-type protein (Homo sapiens, UniProt P01111); experiment: Binding to NRAS by surface plasmon resonance (SPR), KD and KD ratio to KRAS; details: ratio of the KD value with respect to GDP-bound NRAS wild-type protein to the KD value with respect to KRAS
Sequence of GDP-bound NRAS wild-type protein (P01111 whole entry): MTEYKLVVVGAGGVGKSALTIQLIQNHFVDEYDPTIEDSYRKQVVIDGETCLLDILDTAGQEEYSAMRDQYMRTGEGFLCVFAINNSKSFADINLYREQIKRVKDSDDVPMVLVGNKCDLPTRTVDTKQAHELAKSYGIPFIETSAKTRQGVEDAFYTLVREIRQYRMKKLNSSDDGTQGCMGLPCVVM
Summary of the method: as §1

[3] = tested on: human lung cancer strain NCI-H441; format: cell-based
Summary of the method: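 Readout: […] after the ATP-based reagent. Compound: serial dilutions in dimethyl sulfoxide.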

CC[C@H](C)[C@@H]1NC(=O)[C@H](CC)N(C)C(=O)C[C@@H](C(=O)N(C)C)N(C)C(=O)[C@H](C2CCCC2)N(C)C(=O)C2(CCC2)NC(=O)[C@@H]2C[C@H](N3CCC(F)(F)CC3)CN2C(=O)[C@H](CCc2cc(F)c(C(F)(F)F)c(F)c2)NC(=O)CN(C)C(=O)[C@H](Cc2ccc(C(F)(F)F)cc2)N2CCCC[C@@H](C2=O)N(C)C(=O)CN(C)C1=O [PP0732]
HRAS /KRAS [1]: B (a compound having 3 or more and less than 10 is denoted as B) | NRAS /KRAS [2]: C (A compound having a KD ratio of 0.1 or more and less than 3 is denoted as C) | IC50 [3]: 39.6 nM

CC[C@H](C)[C@@H]1NC(=O)[C@H](CC)N(C)C(=O)C[C@@H](C(=O)N(C)C)N(CC)C(=O)[C@H](C2CCCC2)N(C)C(=O)C2(CCC2)NC(=O)[C@@H]2C[C@@H](N3CCC(F)(F)CC3)CN2C(=O)[C@H](CCc2cc(F)c(C(F)(F)F)c(F)c2)NC(=O)CN(C)C(=O)[C@H](Cc2ccc(C(F)(F)F)cc2)N2CCCC[C@@H](C2=O)N(C)C(=O)CN(C)C1=O [PP0733]
HRAS /KRAS [1]: B (a compound having 3 or more and less than 10 is denoted as B) | NRAS /KRAS [2]: B (a compound having 3 or more and less than 10 is denoted as B) | IC50 [3]: 220 nM

CCCN1C(=O)CN(C)C(=O)CN(C)C(=O)[C@H]([C@@H](C)CC)NC(=O)[C@H](CC(C)C)N(C)C(=O)C[C@@H](C(=O)N(C)C)N(C)C(=O)[C@H](C2CCCC2)N(C)C(=O)[C@](C)(C2CC2)NC(=O)[C@@H]2CCCN2C(=O)[C@H](CCc2cc(F)c(C(F)(F)F)c(F)c2)NC(=O)CN(C)C(=O)[C@@H]1Cc1ccc(C(F)(F)F)cc1 [PP0734] ([NMeL]I[Sar][Sar][NPrPhe(4-CF3)][Sar][hPhe(3,5-F2-4-CF3)]P[X7][NMeGly(cPent)][NMeD]-NMe2; lactam N-11)
HRAS /KRAS [1]: C (A compound having a KD ratio of 0.1 or more and less than 3 is denoted as C) | NRAS /KRAS [2]: B (a compound having 3 or more and less than 10 is denoted as B) | IC50 [3]: 28.8 nM

CCCN1C(=O)CN(C)C(=O)CN(C)C(=O)[C@H]([C@@H](C)CC)NC(=O)[C@H](CC(C)C)N(C)C(=O)C[C@@H](C(=O)N(C)C)N(C)C(=O)[C@H](C2CCCC2)N(C)C(=O)[C@](C)(C(C)C)NC(=O)[C@@H]2CCCN2C(=O)[C@H](CCc2cc(F)c(C(F)(F)F)c(F)c2)NC(=O)CN(C)C(=O)[C@@H]1Cc1ccc(C(F)(F)F)cc1 [PP0735] ([NMeL]I[Sar][Sar][NPrPhe(4-CF3)][Sar][hPhe(3,5-F2-4-CF3)]P[αMeV][NMeGly(cPent)][NMeD]-NMe2; lactam N-11)
HRAS /KRAS [1]: C (A compound having a KD ratio of 0.1 or more and less than 3 is denoted as C) | NRAS /KRAS [2]: B (a compound having 3 or more and less than 10 is denoted as B) | IC50 [3]: 40.9 nM

CCCN1C(=O)CN(C)C(=O)CN(C)C(=O)[C@H]([C@@H](C)CC)NC(=O)[C@H](CC(C)C)N(C)C(=O)C[C@@H](C(=O)N(C)C)N(C)C(=O)[C@H](C2CCCC2)N(C)C(=O)[C@](C)([C@@H](C)CC)NC(=O)[C@@H]2CCCN2C(=O)[C@H](CCc2cc(F)c(C(F)(F)F)c(F)c2)NC(=O)CN(C)C(=O)[C@@H]1Cc1ccc(C(F)(F)F)cc1 [PP0736] ([NMeL]I[Sar][Sar][NPrPhe(4-CF3)][Sar][hPhe(3,5-F2-4-CF3)]P[αMeI][NMeGly(cPent)][NMeD]-NMe2; lactam N-11)
HRAS /KRAS [1]: C (A compound having a KD ratio of 0.1 or more and less than 3 is denoted as C) | NRAS /KRAS [2]: B (a compound having 3 or more and less than 10 is denoted as B) | IC50 [3]: 130 nM

CCCN1C(=O)CN(C)C(=O)CN(C)C(=O)[C@H]([C@@H](C)CC)NC(=O)[C@H](CC(C)C)N(C)C(=O)C[C@@H](C(=O)N(C)C)N(C)C(=O)[C@H](C2CCCC2)N(C)C(=O)[C@](C)(CCC)NC(=O)[C@@H]2CCCN2C(=O)[C@H](CCc2cc(F)c(C(F)(F)F)c(F)c2)NC(=O)CN(C)C(=O)[C@@H]1Cc1ccc(C(F)(F)F)cc1 [PP0737] ([NMeL]I[Sar][Sar][NPrPhe(4-CF3)][Sar][hPhe(3,5-F2-4-CF3)]P[X3][NMeGly(cPent)][NMeD]-NMe2; lactam N-11)
HRAS /KRAS [1]: C (A compound having a KD ratio of 0.1 or more and less than 3 is denoted as C) | NRAS /KRAS [2]: B (a compound having 3 or more and less than 10 is denoted as B) | IC50 [3]: 38.2 nM

CCCN1C(=O)CN(C)C(=O)CN(C)C(=O)[C@H]([C@@H](C)CC)NC(=O)[C@H](CC(C)C)N(C)C(=O)C[C@@H](C(=O)N(C)C)N(C)C(=O)[C@H](C2CCCC2)N(C)C(=O)[C@](C)(CC(C)C)NC(=O)[C@@H]2CCCN2C(=O)[C@H](CCc2cc(F)c(C(F)(F)F)c(F)c2)NC(=O)CN(C)C(=O)[C@@H]1Cc1ccc(C(F)(F)F)cc1 [PP0738] ([NMeL]I[Sar][Sar][NPrPhe(4-CF3)][Sar][hPhe(3,5-F2-4-CF3)]P[αMeL][NMeGly(cPent)][NMeD]-NMe2; lactam N-11)
HRAS /KRAS [1]: B (a compound having 3 or more and less than 10 is denoted as B) | NRAS /KRAS [2]: B (a compound having 3 or more and less than 10 is denoted as B) | IC50 [3]: 99.2 nM

CCCN1C(=O)CN(C)C(=O)CN(C)C(=O)[C@H]([C@@H](C)CC)NC(=O)[C@H](CC(C)C)N(C)C(=O)C[C@@H](C(=O)N(C)C)N(C)C(=O)[C@H](C2CCCC2)N(C)C(=O)[C@](C)(CC2CCCCC2)NC(=O)[C@@H]2CCCN2C(=O)[C@H](CCc2cc(F)c(C(F)(F)F)c(F)c2)NC(=O)CN(C)C(=O)[C@@H]1Cc1ccc(C(F)(F)F)cc1 [PP0739] ([NMeL]I[Sar][Sar][NPrPhe(4-CF3)][Sar][hPhe(3,5-F2-4-CF3)]P[αMeCha][NMeGly(cPent)][NMeD]-NMe2; lactam N-11)
HRAS /KRAS [1]: C (A compound having a KD ratio of 0.1 or more and less than 3 is denoted as C) | NRAS /KRAS [2]: B (a compound having 3 or more and less than 10 is denoted as B) | IC50 [3]: 297 nM

CCCN1C(=O)CN(C)C(=O)CN(C)C(=O)[C@H]([C@@H](C)CC)NC(=O)[C@H](CC(C)C)N(C)C(=O)C[C@@H](C(=O)N(C)C)N(C)C(=O)[C@H](C2CCCC2)N(C)C(=O)[C@](C)(Cc2ccccc2)NC(=O)[C@@H]2CCCN2C(=O)[C@H](CCc2cc(F)c(C(F)(F)F)c(F)c2)NC(=O)CN(C)C(=O)[C@@H]1Cc1ccc(C(F)(F)F)cc1 [PP0740] ([NMeL]I[Sar][Sar][NPrPhe(4-CF3)][Sar][hPhe(3,5-F2-4-CF3)]P[αMeF][NMeGly(cPent)][NMeD]-NMe2; lactam N-11)
HRAS /KRAS [1]: C (A compound having a KD ratio of 0.1 or more and less than 3 is denoted as C) | NRAS /KRAS [2]: B (a compound having 3 or more and less than 10 is denoted as B) | IC50 [3]: 51.2 nM

CCCN1C(=O)CN(C)C(=O)CN(C)C(=O)[C@H]([C@@H](C)CC)NC(=O)[C@H](CC(C)C)N(C)C(=O)C[C@@H](C(=O)N(C)C)N(C)C(=O)[C@H](C2CCCC2)N(C)C(=O)[C@](C)(COC)NC(=O)[C@@H]2CCCN2C(=O)[C@H](CCc2cc(F)c(C(F)(F)F)c(F)c2)NC(=O)CN(C)C(=O)[C@@H]1Cc1ccc(C(F)(F)F)cc1 [PP0741] ([NMeL]I[Sar][Sar][NPrPhe(4-CF3)][Sar][hPhe(3,5-F2-4-CF3)]P[αMeS](Me)[NMeGly(cPent)][NMeD]-NMe2; lactam N-11)
HRAS /KRAS [1]: B (a compound having 3 or more and less than 10 is denoted as B) | NRAS /KRAS [2]: B (a compound having 3 or more and less than 10 is denoted as B) | IC50 [3]: 51.5 nM

C=CCOC[C@]1(C)NC(=O)[C@@H]2CCCN2C(=O)[C@H](CCc2cc(F)c(C(F)(F)F)c(F)c2)NC(=O)CN(C)C(=O)[C@H](Cc2ccc(C(F)(F)F)cc2)N(CCC)C(=O)CN(C)C(=O)CN(C)C(=O)[C@H]([C@@H](C)CC)NC(=O)[C@H](CC(C)C)N(C)C(=O)C[C@@H](C(=O)N(C)C)N(C)C(=O)[C@H](C2CCCC2)N(C)C1=O [PP0742] ([NMeL]I[Sar][Sar][NPrPhe(4-CF3)][Sar][hPhe(3,5-F2-4-CF3)]P[αMeS](Allyl)[NMeGly(cPent)][NMeD]-NMe2; lactam N-11)
HRAS /KRAS [1]: B (a compound having 3 or more and less than 10 is denoted as B) | NRAS /KRAS [2]: B (a compound having 3 or more and less than 10 is denoted as B) | IC50 [3]: 73.3 nM

CCCN1C(=O)CN(C)C(=O)CN(C)C(=O)[C@H]([C@@H](C)CC)NC(=O)[C@H](CC(C)C)N(C)C(=O)C[C@@H](C(=O)N(C)C)N(C)C(=O)[C@H](C2CCCC2)N(C)C(=O)[C@](C)(COC(C)(C)C)NC(=O)[C@@H]2CCCN2C(=O)[C@H](CCc2cc(F)c(C(F)(F)F)c(F)c2)NC(=O)CN(C)C(=O)[C@@H]1Cc1ccc(C(F)(F)F)cc1 [PP0743] ([NMeL]I[Sar][Sar][NPrPhe(4-CF3)][Sar][hPhe(3,5-F2-4-CF3)]P[αMeS](tBu)[NMeGly(cPent)][NMeD]-NMe2; lactam N-11)
HRAS /KRAS [1]: C (A compound having a KD ratio of 0.1 or more and less than 3 is denoted as C) | NRAS /KRAS [2]: B (a compound having 3 or more and less than 10 is denoted as B) | IC50 [3]: 76.3 nM

From patent EP4603105A1, “PHARMACEUTICAL COMPOSITION CONTAINING CYCLIC COMPOUND HAVING SELECTIVE KRAS INHIBITORY EFFECT AGAINST HRAS AND NRAS” (CHUGAI SEIYAKU KABUSHIKI KAISHA, priority 2022, dated 2024)
